These results are taken from patent publication EP4741383A1, “COMPOUND AND USE THEREOF AS ANTI-CANCER DRUG” (Tyligand Bioscience (Shanghai) Limited, priority 2023, dated 2025).

pIC50: −log10 of the molar value.

One assay has as its target T1, LYP (Homo sapiens, UniProt Q9Y2R2).
T1 construct: made in house; host or cells: E. coli
T1 sequence (Q9Y2R2 1-807): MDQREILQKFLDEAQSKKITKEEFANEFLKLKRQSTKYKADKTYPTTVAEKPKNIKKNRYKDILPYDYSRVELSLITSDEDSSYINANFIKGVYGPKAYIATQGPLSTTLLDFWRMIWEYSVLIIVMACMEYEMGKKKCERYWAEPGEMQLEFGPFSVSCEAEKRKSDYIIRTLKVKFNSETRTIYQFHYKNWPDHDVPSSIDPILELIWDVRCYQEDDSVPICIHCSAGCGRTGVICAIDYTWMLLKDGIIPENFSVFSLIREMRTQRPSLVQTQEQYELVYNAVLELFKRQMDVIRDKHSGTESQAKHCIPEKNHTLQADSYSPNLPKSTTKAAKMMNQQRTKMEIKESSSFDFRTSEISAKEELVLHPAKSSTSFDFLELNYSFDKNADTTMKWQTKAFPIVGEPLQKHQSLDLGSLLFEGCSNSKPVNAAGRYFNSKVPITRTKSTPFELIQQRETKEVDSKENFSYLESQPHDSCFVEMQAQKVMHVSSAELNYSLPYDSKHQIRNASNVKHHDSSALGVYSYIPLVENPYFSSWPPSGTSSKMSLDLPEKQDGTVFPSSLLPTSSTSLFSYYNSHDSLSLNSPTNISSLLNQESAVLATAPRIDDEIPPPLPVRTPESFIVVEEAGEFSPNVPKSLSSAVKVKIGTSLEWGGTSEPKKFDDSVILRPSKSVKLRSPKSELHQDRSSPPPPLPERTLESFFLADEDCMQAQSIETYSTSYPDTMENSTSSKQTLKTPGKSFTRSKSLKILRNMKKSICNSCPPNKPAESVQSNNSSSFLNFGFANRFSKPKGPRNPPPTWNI
Briefly: Tyrosine phosphatase selectivity (pNPP substrate), LYP. The format is biochemical. As to conditions: LYP, pNPP substrate. As to the method:
(§1) This experiment evaluated the selectivity of the disclosed compounds against tyrosine phosphatases, including SHP1, HePTP, Laforin, LMWPTP, LYP, PTP1B, PRL2, SSU72, VHR, FAP1, STEP, CDC14A, CD45, MEG2, and PP5, all expressed and purified from E. coli.
(§2) Phosphatase activity was measured using p-nitrophenyl phosphate (pNPP) (Fisher Scientific) as the substrate in 50 mM 3,3-dimethylglutaric acid buffer (pH 7.0, containing 1 mM EDTA), with ionic strength adjusted to 0.15 M with NaCl. […] After 10-60 minutes, the reaction was quenched by adding 20 µL of 5 N NaOH. Wells without enzyme were used as controls for correction. The amount of the product, p-nitrophenol, was determined by measuring the absorbance at 405 nm using a Spectra MAX340 microplate spectrophotometer (Molecular Devices), with a molar extinction coefficient of 18000 M^-1cm^-1.
(§3) Data were analyzed using GraphPad Prism software. Dose-response curves were obtained by fitting data using the nonlinear S-curve regression Dose-response-inhibition equation, and IC50 values were calculated.
`Cn1c(-c2cccc(NC(=O)C(=O)Nc3ccc(-c4ccsc4)cc3)c2)c(I)c2cc(C(=O)O)c(O)cc21` [Example 11a-1, reference compound] had a pIC50 of 5.98.
As to `O=C(Nc1ccc(-c2ccsc2)cc1)C(=O)Nc1ccc(-c2cc3cc(F)c(-c4nnn[nH]4)nc3n2C2CCC2)cc1` [Example 132], the pIC50 is 6.30. Compared with the last molecule, the pIC50 is 0.32 log units higher.
The molecule `CC1(n2c(-c3ccc(NC(=O)C(=O)Nc4ccc(N5CCC6(CCOC6)CC5)cc4)cc3)cc3cc(F)c(-c4nnn[nH]4)cc32)CCC1` [Example 68] gave a pIC50 of 5.81.

Staying with this assay, now noted: selectivity ratio LYP over SHP2.
In the case of `Cn1c(-c2cccc(NC(=O)C(=O)Nc3ccc(-c4ccsc4)cc3)c2)c(I)c2cc(C(=O)O)c(O)cc21` [Example 11a-1, reference compound], the “IC50PTP/IC50SHP2 LYP” value is 9.7.
As to `O=C(Nc1ccc(-c2ccsc2)cc1)C(=O)Nc1ccc(-c2cc3cc(F)c(-c4nnn[nH]4)nc3n2C2CCC2)cc1` [Example 132], the “IC50PTP/IC50SHP2 LYP” value is recorded as 18.5.
`CC1(n2c(-c3ccc(NC(=O)C(=O)Nc4ccc(N5CCC6(CCOC6)CC5)cc4)cc3)cc3cc(F)c(-c4nnn[nH]4)cc32)CCC1` [Example 68]: the “IC50PTP/IC50SHP2 LYP” value is given as 32.1.

The next assay concerns the target T2, STEP (Homo sapiens, UniProt P54829).
T2 construct: made in house; host or cells: E. coli
T2 sequence (P54829 1-565): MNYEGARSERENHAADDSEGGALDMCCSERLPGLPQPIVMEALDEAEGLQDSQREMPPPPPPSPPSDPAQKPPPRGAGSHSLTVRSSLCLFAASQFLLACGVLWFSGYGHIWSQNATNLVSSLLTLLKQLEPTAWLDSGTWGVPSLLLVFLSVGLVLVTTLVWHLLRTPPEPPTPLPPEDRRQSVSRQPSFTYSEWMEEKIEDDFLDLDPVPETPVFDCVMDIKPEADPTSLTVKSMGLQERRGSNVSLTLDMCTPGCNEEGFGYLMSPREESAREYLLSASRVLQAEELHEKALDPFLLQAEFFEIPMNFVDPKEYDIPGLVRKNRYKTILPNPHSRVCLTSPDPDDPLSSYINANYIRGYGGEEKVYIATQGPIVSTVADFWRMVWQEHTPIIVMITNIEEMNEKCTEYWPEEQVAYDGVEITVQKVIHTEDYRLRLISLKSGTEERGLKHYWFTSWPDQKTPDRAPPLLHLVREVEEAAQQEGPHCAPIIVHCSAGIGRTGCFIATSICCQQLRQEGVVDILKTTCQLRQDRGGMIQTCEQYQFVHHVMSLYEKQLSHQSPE
Briefly: Tyrosine phosphatase selectivity (pNPP substrate), STEP. In kind it is biochemical. The settings on record: STEP, pNPP substrate. As for the experimental part:
as §1, §2, §3
`Cn1c(-c2cccc(NC(=O)C(=O)Nc3ccc(-c4ccsc4)cc3)c2)c(I)c2cc(C(=O)O)c(O)cc21` [Example 11a-1, reference compound]: the pIC50 is 5.40.
In turn, `O=C(Nc1ccc(-c2ccsc2)cc1)C(=O)Nc1ccc(-c2cc3cc(F)c(-c4nnn[nH]4)nc3n2C2CCC2)cc1` [Example 132] showed a pIC50 of 4.97.
The molecule `CC1(n2c(-c3ccc(NC(=O)C(=O)Nc4ccc(N5CCC6(CCOC6)CC5)cc4)cc3)cc3cc(F)c(-c4nnn[nH]4)cc32)CCC1` [Example 68] showed a pIC50 of 5.08.

The same assay, now with this note: selectivity ratio STEP over SHP2.
As to `Cn1c(-c2cccc(NC(=O)C(=O)Nc3ccc(-c4ccsc4)cc3)c2)c(I)c2cc(C(=O)O)c(O)cc21` [Example 11a-1, reference compound], the “IC50PTP/IC50SHP2 STEP” value was 37.0.
Take `O=C(Nc1ccc(-c2ccsc2)cc1)C(=O)Nc1ccc(-c2cc3cc(F)c(-c4nnn[nH]4)nc3n2C2CCC2)cc1` [Example 132]: the “IC50PTP/IC50SHP2 STEP” value is on record as 392.6.
Consider `CC1(n2c(-c3ccc(NC(=O)C(=O)Nc4ccc(N5CCC6(CCOC6)CC5)cc4)cc3)cc3cc(F)c(-c4nnn[nH]4)cc32)CCC1` [Example 68], for which the “IC50PTP/IC50SHP2 STEP” value is 171.5.

The next assay has as its target T3, PTP1B (Homo sapiens, UniProt P18031).
T3 construct: made in house; host or cells: E. coli
T3 sequence (P18031 1-435): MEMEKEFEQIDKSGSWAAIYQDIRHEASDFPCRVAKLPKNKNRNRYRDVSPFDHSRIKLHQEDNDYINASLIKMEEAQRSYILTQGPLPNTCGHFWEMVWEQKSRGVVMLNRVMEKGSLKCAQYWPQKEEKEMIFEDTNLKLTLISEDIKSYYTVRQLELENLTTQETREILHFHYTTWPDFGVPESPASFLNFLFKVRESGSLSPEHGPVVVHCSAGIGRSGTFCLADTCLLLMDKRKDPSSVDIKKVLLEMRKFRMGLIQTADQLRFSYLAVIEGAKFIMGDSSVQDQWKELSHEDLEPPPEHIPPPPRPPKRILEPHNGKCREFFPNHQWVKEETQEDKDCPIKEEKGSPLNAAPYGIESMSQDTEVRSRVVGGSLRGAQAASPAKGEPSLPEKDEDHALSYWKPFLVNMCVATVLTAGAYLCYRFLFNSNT
Briefly: Tyrosine phosphatase selectivity (pNPP substrate), PTP1B. The format is biochemical. The settings on record: PTP1B, pNPP substrate. As to the method:
as §1, §2, §3
In turn, `Cn1c(-c2cccc(NC(=O)C(=O)Nc3ccc(-c4ccsc4)cc3)c2)c(I)c2cc(C(=O)O)c(O)cc21` [Example 11a-1, reference compound] showed a negative-log IC50 (pIC50) of 5.64.
Still for that read-out and setting: with `O=C(Nc1ccc(-c2ccsc2)cc1)C(=O)Nc1ccc(-c2cc3cc(F)c(-c4nnn[nH]4)nc3n2C2CCC2)cc1` [Example 132] the figure was 5.57; with `CC1(n2c(-c3ccc(NC(=O)C(=O)Nc4ccc(N5CCC6(CCOC6)CC5)cc4)cc3)cc3cc(F)c(-c4nnn[nH]4)cc32)CCC1` [Example 68], 5.82.

The assay is the same for the next values; noted with them: selectivity ratio PTP1B over SHP2.
Regarding `Cn1c(-c2cccc(NC(=O)C(=O)Nc3ccc(-c4ccsc4)cc3)c2)c(I)c2cc(C(=O)O)c(O)cc21` [Example 11a-1, reference compound], the “IC50PTP/IC50SHP2 PTP1B” value is on record as 21.2.
Consider `O=C(Nc1ccc(-c2ccsc2)cc1)C(=O)Nc1ccc(-c2cc3cc(F)c(-c4nnn[nH]4)nc3n2C2CCC2)cc1` [Example 132], for which the “IC50PTP/IC50SHP2 PTP1B” value is listed as 100.
Consider `CC1(n2c(-c3ccc(NC(=O)C(=O)Nc4ccc(N5CCC6(CCOC6)CC5)cc4)cc3)cc3cc(F)c(-c4nnn[nH]4)cc32)CCC1` [Example 68], for which the “IC50PTP/IC50SHP2 PTP1B” value stood at 31.3.

The target in another assay is T4, Laforin (Homo sapiens, UniProt O95278).
T4 construct: made in house; host or cells: E. coli
T4 sequence (O95278 1-331): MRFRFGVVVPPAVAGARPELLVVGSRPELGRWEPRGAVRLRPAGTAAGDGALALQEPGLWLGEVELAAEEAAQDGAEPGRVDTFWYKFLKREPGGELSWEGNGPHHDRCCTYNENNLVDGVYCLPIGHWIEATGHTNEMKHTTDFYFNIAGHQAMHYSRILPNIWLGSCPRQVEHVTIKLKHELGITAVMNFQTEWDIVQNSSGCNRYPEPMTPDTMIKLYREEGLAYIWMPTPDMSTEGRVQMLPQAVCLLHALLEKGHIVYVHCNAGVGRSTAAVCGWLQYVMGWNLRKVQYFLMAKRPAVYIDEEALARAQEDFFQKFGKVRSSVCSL
Briefly: Tyrosine phosphatase selectivity (pNPP substrate), Laforin. The format is biochemical. The settings on record: Laforin, pNPP substrate. As to the method:
as §1, §2, §3
`Cn1c(-c2cccc(NC(=O)C(=O)Nc3ccc(-c4ccsc4)cc3)c2)c(I)c2cc(C(=O)O)c(O)cc21` [Example 11a-1, reference compound] gave a negative-log IC50 (pIC50) of 4.91.
`O=C(Nc1ccc(-c2ccsc2)cc1)C(=O)Nc1ccc(-c2cc3cc(F)c(-c4nnn[nH]4)nc3n2C2CCC2)cc1` [Example 132] gave a pIC50 of under 4.70.
`CC1(n2c(-c3ccc(NC(=O)C(=O)Nc4ccc(N5CCC6(CCOC6)CC5)cc4)cc3)cc3cc(F)c(-c4nnn[nH]4)cc32)CCC1` [Example 68] had a negative logarithm of the IC50 (pIC50) of under 4.60.

The assay is the same for the next values; noted with them: selectivity ratio Laforin over SHP2.
In the case of `Cn1c(-c2cccc(NC(=O)C(=O)Nc3ccc(-c4ccsc4)cc3)c2)c(I)c2cc(C(=O)O)c(O)cc21` [Example 11a-1, reference compound], the “IC50PTP/IC50SHP2 Laforin” value was 112.
Regarding `O=C(Nc1ccc(-c2ccsc2)cc1)C(=O)Nc1ccc(-c2cc3cc(F)c(-c4nnn[nH]4)nc3n2C2CCC2)cc1` [Example 132], the “IC50PTP/IC50SHP2 Laforin” value worked out at 740.7.
For the molecule `CC1(n2c(-c3ccc(NC(=O)C(=O)Nc4ccc(N5CCC6(CCOC6)CC5)cc4)cc3)cc3cc(F)c(-c4nnn[nH]4)cc32)CCC1` [Example 68], the “IC50PTP/IC50SHP2 Laforin” value was determined as 520.8.

The target in a further assay is T5, SSU72 (Homo sapiens, UniProt Q9NP77).
T5 construct: made in house; host or cells: E. coli
T5 sequence (Q9NP77 1-194): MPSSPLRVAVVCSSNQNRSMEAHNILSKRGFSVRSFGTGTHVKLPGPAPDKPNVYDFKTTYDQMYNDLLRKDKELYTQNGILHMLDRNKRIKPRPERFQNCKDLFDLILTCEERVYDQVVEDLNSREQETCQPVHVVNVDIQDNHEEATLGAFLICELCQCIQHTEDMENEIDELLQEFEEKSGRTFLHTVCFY
Briefly: Tyrosine phosphatase selectivity (pNPP substrate), SSU72. In kind it is biochemical. As to conditions: SSU72, pNPP substrate. As to the method: as §1, §2, §3
Regarding `Cn1c(-c2cccc(NC(=O)C(=O)Nc3ccc(-c4ccsc4)cc3)c2)c(I)c2cc(C(=O)O)c(O)cc21` [Example 11a-1, reference compound], the negative logarithm of the IC50 (pIC50) is 5.89.
As for `O=C(Nc1ccc(-c2ccsc2)cc1)C(=O)Nc1ccc(-c2cc3cc(F)c(-c4nnn[nH]4)nc3n2C2CCC2)cc1` [Example 132], the pIC50 was over 5.52.

The same assay, now with this note: selectivity ratio SSU72 over SHP2.
`Cn1c(-c2cccc(NC(=O)C(=O)Nc3ccc(-c4ccsc4)cc3)c2)c(I)c2cc(C(=O)O)c(O)cc21` [Example 11a-1, reference compound]: the “IC50PTP/IC50SHP2 SSU72” value is 12.0.
Regarding `O=C(Nc1ccc(-c2ccsc2)cc1)C(=O)Nc1ccc(-c2cc3cc(F)c(-c4nnn[nH]4)nc3n2C2CCC2)cc1` [Example 132], the “IC50PTP/IC50SHP2 SSU72” value came out at 111.1.
